Source: publication PMC10683023, “Targeting Glial Cells by Organic Anion-Transporting Polypeptide 1C1 (OATP1C1)-Utilizing L-Thyroxine-Derived Prodrugs” (Journal of Medicinal Chemistry, 2023)

Experiments:
[1] = system: human U-87MG glioma cells; test: Concentration-dependent cellular uptake into human U-87MG glioma cells; assay type: cell-based; settings: 5–400 μM, 30 min, 37 °C
Procedure: U-87MG (ATCC, HTB-14, unknown origin) was purchased from Lonza (Basel, Switzerland). The cells were cultured in standard conditions (37 °C, 5% CO2) using Dulbecco’s modified Eagle’s medium (DMEM) supplemented with L-glutamine (2.0 mM), heat-inactivated fetal bovine serum (FBS) (10%), penicillin (50 U/mL), and streptomycin (50 μg/mL). U-87MG cells (passages 8–25) were seeded at a density of 1 × 10^5 cells/well onto 24-well plates and used for the uptake experiments 1 day after seeding. All of the studies were carried out as three biological replicates from the same cell passage.
(§1) After removal of the culture medium, U-87MG human glioma cells and mouse primary astrocytes were carefully washed with prewarmed Hank’s balanced salt solution (HBSS) containing 125.0 mM NaCl (or choline chloride in Na^+ free conditions), 4.8 mM KCl, 1.2 mM MgSO4, 1.2 mM KH2PO4, 1.3 mM CaCl2, 5.6 mM glucose, and 25.0 mM 4-(2-hydroxyethyl)piperazine-1-ethanesulfonic acid (HEPES) with the pH adjusted to either 7.4 or pH 8.5 with 1 M NaOH (or KOH in sodium-free conditions). In the experiments at lower pH (4.5–6.5), 25.0 mM HEPES was replaced by 2-(N-morpholino) ethanesulfonic acid (MES), and the pH was adjusted to 4.5, 5.5, and 6.5 by 1.0 M NaOH. Preincubation was done with 500 μL of prewarmed HBSS at 37 °C for 10 min before adding the substrate for the uptake experiments. The functionality of OATP1C1 in human glioma U-87MG cells was studied with a known substrate (L-thyroxine, T4) and of oatp1a4, 1a5, and 1a6 in mouse primary astrocytes with [6,7-^3H(N)]-estrone-3-sulfate (ES) by incubating the uptake solution (250 μL in HBSS) consisting of 5–400 μM of the substrate at 37 °C for 30 min. After incubation, the uptake was stopped by adding 500 μL of ice-cold HBSS, and the cells were washed two times with ice-cold HBSS (2 × 500 μL). The cells were then lysed with 500 μL of 0.1 M NaOH (60 min), the lysate was neutralized, and the protein was precipitated with acidic acetonitrile (ACN with 4.8% formic acid). The supernatants were analyzed by the high-performance liquid chromatography (HPLC) methods described below (T4) or by using a liquid scintillation counter (MicroBeta2 counter, PerkinElmer, Waltham, MA) (ES). The concentrations of T4 and ES were calculated from the spiked standard curve and normalized with the protein concentrations. The protein concentrations on each plate were determined as a mean of three samples by Bio-Rad Protein Assay, based on the Bradford dye-binding method, using bovine serum albumin (BSA) as a standard protein and measuring the absorbance (595 nm) by a multiplate reader (EnVision, PerkinElmer, Inc., Waltham, MA). The OATP-mediated uptake was confirmed by changing the pH of the uptake buffer in the absence of sodium ions, and in the case of OATP1C1 in human U-87MG cells, the uptake of T4 (100 μM) was studied in the presence of competing OATP1C1-ligands, diclofenac and flufenamic acid (100 μM), and in the case of oatp1a4/1a5/1a6 in mouse primary astrocytes, the uptake of ES (100 μM) was studied in the presence of competing OATO1A2-ligand, naringin (100 μM).
Cellular uptake of prodrugs 1–8 was studied as described for L-thyroxine above by adding compounds at a concentration of 5–400 μM in prewarmed HBSS buffer (250 μL) on the cell layer and incubating at 37 °C for 30 min (uptake was linear with all compounds up to 30 min). Subsequently, the cells were washed three times with ice-cold HBSS and lysed with 500 μL of 0.1 M NaOH (60 min). The lysate was neutralized; the proteins were precipitated with acidic ACN (containing 4.8% formic acid), and the supernatants were analyzed by the (HPLC) methods described below. The concentrations of each prodrug normalized to protein concentration were calculated from the standard curve prepared by spiking known concentrations of compounds into ACN-precipitated cell lysate. […]

[2] = system: mouse primary astrocytes; test: Concentration-dependent cellular uptake into mouse primary astrocytes; assay type: cell-based; settings: 5–400 μM
Procedure: The mouse primary astrocytes were isolated from neonatal pups (P0-2) of wild-type mice (C57BL/6JOlaHsd) as previously described, in compliance with the European Commission Directive 2010/63/EU and approved by the Institutional Animal Care and Use Committee of the University of Eastern Finland (Animal Usage Plan numbers: EKS-006-2019).[37] Neonatal pups were decapitated, and their brains were collected in an ice-cold HBSS buffer. After tissue dissociation and washing, cells were plated on poly-L-lysine-coated flasks and cultured in DMEM supplemented with FBS, L-glutamine, and penicillin/streptomycin (50 μg/mL) for 24 h. Debris and dead cells were removed by DPBS rinsing. After 7 days, microglial cells were removed, and the remaining astrocytic monolayer was collected by trypsinization using 0.05% trypsin-ethylenediaminetetraacetic acid (EDTA) (Gibco), pelleted, and stored at −80 °C for subsequent analysis. For the cell uptake experiments, the astrocytes were seeded on 24-well plates with a density of 10^4 cells/well 3 days before the experiments.
as §1
Cellular uptake of prodrugs 1–8 was studied as described for L-thyroxine above by adding compounds at a concentration of 5–400 μM in prewarmed HBSS buffer (250 μL) on the cell layer and incubating at 37 °C for 30 min (uptake was linear with all compounds up to 30 min). Subsequently, the cells were washed three times with ice-cold HBSS and lysed with 500 μL of 0.1 M NaOH (60 min). […]

[3] = Enzymatic bioconversion in mouse liver S9 fraction; assay type: in vitro ADME; settings: after 5 h incubation, 100 μM prodrug, 37 °C, mean ± SD, n = 3
Procedure: (§2) The rates of bioactivation of the prodrugs 1–8 in mouse and human liver S9 fractions, as well as in mouse primary astrocyte–microglia homogenate, were determined at +37 °C. The incubation mixtures were prepared by mixing liver S9 subcellular fraction or brain cell homogenate (final protein concentration 1.0 mg/mL) with isotonic Tris–HCl buffer (pH 7.4) and 10 mM prodrug stock solution in DMSO (the initial concentration of prodrugs was 100 μM and the DMSO concentration was […]). The mixture was incubated for 5 h, and the samples ([…]) were withdrawn at appropriate intervals. The enzymatic reaction was terminated by the addition of ice-cold acetonitrile ([…]), and the samples were centrifuged for 5 min at 12 000 rpm at room temperature and kept on ice until the supernatants were analyzed by the HPLC method described below. In blank reactions, the S9 fractions were replaced with the same volume of buffer. The pseudo-first-order half-lives (t1/2) for the rates of bioconversion of the prodrugs were calculated from the slope of the linear portion of the plotted logarithm of the remaining prodrug concentration versus time. The rates of bioactivation of prodrugs 1–8 in human plasma and mouse serum were determined at 37 °C as above by adding 10 mM stock solution of the prodrug to plasma/serum in a ratio of 1:10 and analyzed similarly to the samples from S9 fractions.
(§3) The amount of prodrug 1–8 was determined by the HPLC system, which consisted of an Agilent 1100 binary pump (Agilent Technologies Inc., Wilmington, DE), an 1100 micro vacuum degasser, an HP 1050 Autosampler, and an HP 1050 variable wavelength detector, operated at 230–240 nm. The chromatographic separations were achieved on an Agilent Zorbax SB-C18 analytical column (4.4 mm × 150 mm, 5 μm) (Agilent Technologies Inc., Wilmington, DE) by using isocratic elution of water containing 0.1% formic acid (pH ca. 3.0) and acetonitrile containing 0.1% formic acid with ratios of 50:50, 30:70, 40:60, 50:50, 50:50, 40:60, 40:60, and 30:70 (v/v), respectively, for prodrug 1–8. […] The lower limit of quantification for prodrugs 1–8 was 0.20 μM. These HPLC methods were also accurate, precise, and selective over the range of 0.5–20 μM.

[4] = Enzymatic bioconversion in mouse primary astrocyte–microglia homogenate; assay type: in vitro ADME; settings: after 5 h incubation, 100 μM prodrug, 37 °C, mean ± SD, n = 3
Procedure: as §2, §3

[5] = Enzymatic bioconversion in human liver S9 fraction; assay type: in vitro ADME; settings: after 5 h incubation, 100 μM prodrug, 37 °C, mean ± SD, n = 3
Procedure: as §2, §3

[6] = Enzymatic bioconversion in human plasma; assay type: in vitro ADME; settings: after 5 h incubation, 37 °C, mean ± SD, n = 3
Procedure: as §2, §3

[7] = Enzymatic bioconversion in mouse serum; assay type: in vitro ADME; settings: after 5 h incubation, 37 °C, mean ± SD, n = 3
Procedure: as §2, §3

N[C@@H](Cc1cc(I)c(Oc2cc(I)c(O)c(I)c2)c(I)c1)C(=O)O [L-Thyroxine T4, L-thyroxine]
Km [1]: 111 ± 32 µM
Vmax, cellular uptake, U-87MG [1]: 8.86 ± 1.33 nmol/min/mg
Km ([2]; 30 min, 37 °C): 1250 ± 230 µM
Vmax, cellular uptake, astrocytes ([2]; 30 min, 37 °C): 9.7 ± 6.1 nmol/min/mg

C[C@]12CC[C@@H]3c4ccc(OS(=O)(=O)O)cc4CC[C@H]3[C@@H]1CCC2=O [ES, [6,7-^3H(N)]-estrone-3-sulfate, reference compound]
Km ([2]; 30 min, 37 °C): 703 ± 227 µM
Vmax, ES uptake into mouse primary astrocytes ([2]; Figure 2B): 0.22 ± 0.05 pmol/min/mg

CC(C(=O)Oc1c(I)cc(C[C@H](N)C(=O)O)cc1I)c1cccc(C(=O)c2ccccc2)c1 (mixture of isomers) [Prodrug 1, (2S)-2-Amino-3-(4-((2-(3-benzoylphenyl)propanoyl)oxy)-3,5-diiodophenyl)propanoic acid]
Enzymatic stability, remaining percentage, mouse liver S9 [3]: 74.30 ± 7.50%
Enzymatic stability, remaining percentage, mouse brain cell homogenate [4]: 85.76 ± 2.74%
Km [1]: 174 µM
Km ([1]; listed as PD1): ~174 µM
Enzymatic stability, remaining percentage, human liver S9 [5]: 78.13 ± 2.17%
Enzymatic stability, remaining percentage, human plasma [6]: 92.01 ± 5.02%
Enzymatic stability, remaining percentage, mouse serum [7]: 94.32 ± 1.27%
